Results taken from PubChem BioAssay (NCI).
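The compound was tested at five concentrations on cells cultured in 96-well plates, with a 48-hour exposure period. GI50 = concentration required for 50% inhibition of growth. TGI denotes the concentration required for complete inhibition of growth.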

What was measured:
Test in all cases: NCI-60 cell line screen, 48 h
RXF 393 renal = test system: RXF 393 renal
HOP-92 NSCLC = test system: HOP-92 NSCLC
CCRF-CEM leukemia = test system: CCRF-CEM leukemia
SK-MEL-2 melanoma = test system: SK-MEL-2 melanoma
OVCAR-4 ovarian = test system: OVCAR-4 ovarian
NCI/ADR-RES ovarian = test system: NCI/ADR-RES ovarian
MALME-3M melanoma = test system: MALME-3M melanoma
SNB-19 CNS = test system: SNB-19 CNS
IGROV1 ovarian = test system: IGROV1 ovarian
BT-549 breast = test system: BT-549 breast
CAKI-1 renal = test system: CAKI-1 renal
SW-620 colon = test system: SW-620 colon
OVCAR-3 ovarian = test system: OVCAR-3 ovarian
A549 NSCLC = test system: A549 NSCLC
HCT-116 colon = test system: HCT-116 colon
DU-145 prostate = test system: DU-145 prostate
NCI-H23 lung = test system: NCI-H23 lung
HS 578T breast = test system: HS 578T breast
NCI-H460 lung = test system: NCI-H460 lung
MDA-MB-435 = test system: MDA-MB-435
U251 CNS = test system: U251 CNS
UO-31 renal = test system: UO-31 renal
SR leukemia = test system: SR leukemia
HT29 colon = test system: HT29 colon
M14 melanoma = test system: M14 melanoma
HL-60(TB) leukemia = test system: HL-60(TB) leukemia
NCI-H522 lung = test system: NCI-H522 lung
T-47D breast = test system: T-47D breast
786-0 renal = test system: 786-0 renal
SF-268 CNS = test system: SF-268 CNS
UACC-62 melanoma = test system: UACC-62 melanoma
SF-539 CNS = test system: SF-539 CNS
SF-295 CNS = test system: SF-295 CNS
SK-OV-3 ovarian = test system: SK-OV-3 ovarian
OVCAR-8 ovarian = test system: OVCAR-8 ovarian
RPMI-8226 leukemia = test system: RPMI-8226 leukemia
SNB-75 CNS = test system: SNB-75 CNS
LOX IMVI melanoma = test system: LOX IMVI melanoma
MOLT-4 leukemia = test system: MOLT-4 leukemia
MCF7 breast = test system: MCF7 breast
HCC-2998 colon = test system: HCC-2998 colon
COLO 205 colon = test system: COLO 205 colon
PC-3 prostate = test system: PC-3 prostate
SK-MEL-28 melanoma = test system: SK-MEL-28 melanoma
KM12 colon = test system: KM12 colon
UACC-257 melanoma = test system: UACC-257 melanoma
MDA-MB-231 breast = test system: MDA-MB-231 breast
HOP-62 NSCLC = test system: HOP-62 NSCLC
EKVX NSCLC = test system: EKVX NSCLC
HCT-15 colon = test system: HCT-15 colon
A498 renal = test system: A498 renal
K-562 leukemia = test system: K-562 leukemia
ACHN renal = test system: ACHN renal
SN12C renal = test system: SN12C renal
SK-MEL-5 melanoma = test system: SK-MEL-5 melanoma
OVCAR-5 ovarian = test system: OVCAR-5 ovarian
TK-10 renal = test system: TK-10 renal

c1ccc2cc(-c3n(Cc4ccc5ccccc5n4)c4ccccc4[n+]3Cc3ccc4ccccc4n3)ccc2c1
GI50 (RXF 393 renal): 245 nM | TGI (RXF 393 renal): 1240 nM | GI50 (HOP-92 NSCLC): 136 nM | TGI (HOP-92 NSCLC): 517 nM | GI50 (CCRF-CEM leukemia): 333 nM | TGI (CCRF-CEM leukemia): 1670 nM | GI50 (SK-MEL-2 melanoma): 283 nM | TGI (SK-MEL-2 melanoma): 1010 nM | GI50 (OVCAR-4 ovarian): 255 nM | TGI (OVCAR-4 ovarian): 1130 nM | GI50 (NCI/ADR-RES ovarian): 6600 nM | TGI (NCI/ADR-RES ovarian): 26400 nM | GI50 (MALME-3M melanoma): 379 nM | TGI (MALME-3M melanoma): 1690 nM | GI50 (SNB-19 CNS): 315 nM | TGI (SNB-19 CNS): 1320 nM | GI50 (IGROV1 ovarian): 290 nM | TGI (IGROV1 ovarian): 1280 nM | GI50 (BT-549 breast): 316 nM | TGI (BT-549 breast): 1250 nM | GI50 (CAKI-1 renal): 655 nM | TGI (CAKI-1 renal): 2000 nM | GI50 (SW-620 colon): 346 nM | TGI (SW-620 colon): 1420 nM | GI50 (OVCAR-3 ovarian): 314 nM | TGI (OVCAR-3 ovarian): 1390 nM | GI50 (A549 NSCLC): 349 nM | TGI (A549 NSCLC): 1510 nM | GI50 (HCT-116 colon): 272 nM | TGI (HCT-116 colon): 1120 nM | GI50 (DU-145 prostate): 395 nM | TGI (DU-145 prostate): 1650 nM | GI50 (NCI-H23 lung): 285 nM | TGI (NCI-H23 lung): 1090 nM | GI50 (HS 578T breast): 343 nM | TGI (HS 578T breast): 1700 nM | GI50 (NCI-H460 lung): 361 nM | TGI (NCI-H460 lung): 1310 nM | GI50 (MDA-MB-435): 369 nM | TGI (MDA-MB-435): 1350 nM | GI50 (U251 CNS): 242 nM | TGI (U251 CNS): 1140 nM | GI50 (UO-31 renal): 1340 nM | TGI (UO-31 renal): 2660 nM | GI50 (SR leukemia): 362 nM | TGI (SR leukemia): 1420 nM | GI50 (HT29 colon): 256 nM | TGI (HT29 colon): 1190 nM | GI50 (M14 melanoma): 307 nM | TGI (M14 melanoma): 1530 nM | GI50 (HL-60(TB) leukemia): 152 nM | TGI (HL-60(TB) leukemia): 462 nM | GI50 (NCI-H522 lung): 321 nM | TGI (NCI-H522 lung): 1250 nM | GI50 (T-47D breast): 222 nM | TGI (T-47D breast): 1280 nM | GI50 (786-0 renal): 392 nM | TGI (786-0 renal): 1720 nM | GI50 (SF-268 CNS): 332 nM | TGI (SF-268 CNS): 1420 nM | GI50 (UACC-62 melanoma): 339 nM | TGI (UACC-62 melanoma): 1320 nM | GI50 (SF-539 CNS): 390 nM | TGI (SF-539 CNS): 1430 nM | GI50 (SF-295 CNS): 301 nM | TGI (SF-295 CNS): 1090 nM | GI50 (SK-OV-3 ovarian): 268 nM | TGI (SK-OV-3 ovarian): 912 nM | GI50 (OVCAR-8 ovarian): 297 nM | TGI (OVCAR-8 ovarian): 1220 nM | GI50 (RPMI-8226 leukemia): 80.2 nM | TGI (RPMI-8226 leukemia): 520 nM | GI50 (SNB-75 CNS): 190 nM | TGI (SNB-75 CNS): 746 nM | GI50 (LOX IMVI melanoma): 259 nM | TGI (LOX IMVI melanoma): 837 nM | GI50 (MOLT-4 leukemia): 348 nM | TGI (MOLT-4 leukemia): 1400 nM | GI50 (MCF7 breast): 277 nM | TGI (MCF7 breast): 1140 nM | GI50 (HCC-2998 colon): 344 nM | TGI (HCC-2998 colon): 1460 nM | GI50 (COLO 205 colon): 171 nM | TGI (COLO 205 colon): 346 nM | GI50 (PC-3 prostate): 184 nM | TGI (PC-3 prostate): 1120 nM | GI50 (SK-MEL-28 melanoma): 423 nM | TGI (SK-MEL-28 melanoma): 1650 nM | GI50 (KM12 colon): 321 nM | TGI (KM12 colon): 1210 nM | GI50 (UACC-257 melanoma): 275 nM | TGI (UACC-257 melanoma): 1040 nM | GI50 (MDA-MB-231 breast): 307 nM | TGI (MDA-MB-231 breast): 1320 nM | GI50 (HOP-62 NSCLC): 363 nM | TGI (HOP-62 NSCLC): 1490 nM | GI50 (EKVX NSCLC): 517 nM | TGI (EKVX NSCLC): 2080 nM | GI50 (HCT-15 colon): 1600 nM | TGI (HCT-15 colon): 3180 nM | GI50 (A498 renal): 121 nM | TGI (A498 renal): 801 nM | GI50 (K-562 leukemia): 160 nM | TGI (K-562 leukemia): 1390 nM | GI50 (ACHN renal): 717 nM | TGI (ACHN renal): 1950 nM | GI50 (SN12C renal): 298 nM | TGI (SN12C renal): 1110 nM | GI50 (SK-MEL-5 melanoma): 201 nM | TGI (SK-MEL-5 melanoma): 422 nM | GI50 (OVCAR-5 ovarian): 368 nM | TGI (OVCAR-5 ovarian): 1470 nM | GI50 (TK-10 renal): 413 nM | TGI (TK-10 renal): 1830 nM
